Reference: the NIST ThermoML archive (doi:10.1016/j.tca.2007.07.008)
± gives the expanded uncertainty stated by the source.

Key:
[1] = for mass density: 298.15 K, 101.33 kPa, Liquid, Vibrating tube method
[2] = refractive index (Na D-line) (dimensionless); conditions: 298.15 K; 101.33 kPa; Liquid; Standard Abbe refractometry

SMILES | Normal melting temperature ([1]; Crystal) [°C] | refractive index [2] | mass density [1] [kg/m3]
CN1C(=O)N(C)C2C1N(C)C(=O)N2C (stereo unspecified) [1,3,4,6-tetramethylglycoluril] | 228 ± 4 | – | –
CC(=O)N(C)C [N,N-dimethylethanamide] | – | 1.436 ± 0.0007 | 936.5 ± 0.1
CNC=O [N-methylformamide] | – | 1.4308 ± 0.0008 | 998.92 ± 0.3
CC(C)=O [acetone] | – | 1.3563 ± 0.0007 | 784.65 ± 0.16
CN(C)C=O [dimethylformamide] | – | 1.4276 ± 0.0007 | 943.93 ± 0.13
NC=O [formamide] | – | 1.4465 ± 0.0007 | 1129.15 ± 0.2
